The nature of series [1]: Particle size of milled product by Malvern Mastersizer 2000 (laser diffraction). Format: physicochemical. Particulars: for X10 / X50 / X90 (90% cumulative undersize): Example 4: piroxicam milled in supercritical CO2, 120 min, by collection method.
Series [2] is described as follows: Surface area measurements (BET) of milled product. Format: physicochemical. The conditions noted are these: Example 4: piroxicam milled in supercritical CO2; for BET: Table 2. An excerpt:
The yield of the run with the depressurization was 10.7 grams, while in the case of the nozzle dispersion only 2.4 grams were recovered.

Where [3] appears, read: Example 2: ibuprofen + sodium lauryl sulfate milled in supercritical CO2, ceramic media, 60 min.
Where [4] appears, read: Example 1: lactose + oleic acid milled in supercritical CO2, nylon media, 60 min.
Setting [5] is: Example 3: lactose mono hydrate + Span85 milled in liquified HFC 134a, 1000 psi, 60 min.

Regarding `CN1C(C(=O)Nc2ccccn2)=C(O)c2ccccc2S1(=O)=O` [Test 1, piroxicam], in series [1], the X10 was found to be 3.00 micron, the X50 is 5.70 micron and the “X90 (90% cumulative undersize)” value was 10.9 micron. Moreover, in series [2], the BET was 11.8 sq. m/g. For the same compound, the “surface area (BET), specific surface area” value in series [2] (listed as product collected in the filter before depressurization) is 11.8 sq meter per gram.
Consider `CN1C(C(=O)Nc2ccccn2)=C(O)c2ccccc2S1(=O)=O` [Test 2, piroxicam], for which, in series [1], the X10 is 0.08 micron, the X50 was found to be 0.26 micron and the “X90 (90% cumulative undersize)” value came to 2.04 micron. The compound further gave a BET in series [2] of 9.4 sq. m/g. Moreover, in series [2] (listed as nozzle dispersed material), the “surface area (BET), specific surface area” value was determined as 9.7 sq meter per gram.
As for `CC(C)Cc1ccc(C(C)C(=O)O)cc1` (stereo not shown) [ibuprofen], in series [1] (setting [3]), the 10% cumulative undersize is reported as 1.097 micron and the median size came to 2.6 micron. In addition, the 90% cumulative undersize in series [1] (Example 2: ibuprofen + sodium lauryl sulfate milled in supercritical CO2, due to agglomeration) was found to be 219 microns.
As to `OC[C@H]1O[C@@H](O[C@H]2[C@H](O)[C@@H](O)C(O)O[C@@H]2CO)[C@H](O)[C@@H](O)[C@H]1O` (stereo partly shown) [lactose], in series [1] (setting [4]), the 10% cumulative undersize was determined as 3.0 micron and the 90% cumulative undersize came to 796 micron. In addition, the median particle size in series [1] (Example 1: lactose + oleic acid milled in supercritical CO2, nylon media, 60 min, collected in high pressure filter) turned out to be 75.889 microns. Also, in series [1] (setting [5]), the 10% cumulative undersize is 1.059 micron, the 90% cumulative undersize came to 553 micron and the median particle size was 4.4 microns.

The values are drawn from patent US20050258288A1, “High pressure media milling system and process of forming particles” (E. I. du Pont de Nemours and Company, priority 2003, published 2005).
